Laboratory results published in patent US20230250083A1, “CRYSTALS” (NIPPON SHINYAKU CO., LTD., priority 2017, published 2023).

How the values were obtained:
[1] = Crystallization experiment, operation procedure 3 (dissolved at 40° C., solvent gradually distilled off at room temperature); type: physicochemical; set-up: key: —: The symbol “-” in Table 1 to Table 3 means that no precipitate was obtained
Protocol: (§1) Each of various solvents was added to the Form-I crystal of the present invention (several mg), crystals of the compound A were precipitated according to the following operation procedures, and the crystal form of the precipitated crystals was confirmed. The results of the operation procedures 1 to 3 are shown in Table 1 and Table 2, and the results of the operation procedure 4 are shown in Table 3. The symbol “-” in Table 1 to Table 3 means that no precipitate was obtained.
Each of various solvents (50 μL) was added to the Form-I crystal of the present invention to dissolve the Form-I crystal of the present invention at 40° C. […] The solvent was gradually distilled off at room temperature.

[2] = Crystallization experiment, operation procedure 4 (saturated solution, poor solvent added); type: physicochemical; set-up: key: —: The symbol “-” in Table 1 to Table 3 means that no precipitate was obtained
Protocol: Each of various solvents was added to the Form-I crystal of the present invention (several mg), crystals of the compound A were precipitated according to the following operation procedures, and the crystal form of the precipitated crystals was confirmed. The results of the operation procedures 1 to 3 are shown in Table 1 and Table 2, and the results of the operation procedure 4 are shown in Table 3. The symbol “-” in Table 1 to Table 3 means that no precipitate was obtained. Each of various dissolving solvents (minimum volume) was added to the Form-I crystal of the present invention to prepare a saturated solution. Various poor solvents were added thereto.

[3] = Crystallization experiment, operation procedure 2 (dissolved at 40° C., cooled to 4° C., stirred 3 days); type: physicochemical; set-up: key: —: The symbol “-” in Table 1 to Table 3 means that no precipitate was obtained
Protocol: as §1
Each of various solvents (50 μL) was added to the Form-I crystal of the present invention to dissolve the Form-I crystal of the present invention at 40° C. […] The solution was cooled to 4° C. and stirred for 3 days.

[4] = Crystallization experiment, operation procedure 1 (suspension stirred 2 days, cooled and warmed between 4 to 40° C.); type: physicochemical; set-up: key: —: The symbol “-” in Table 1 to Table 3 means that no precipitate was obtained
Protocol: as §1
Each of various solvents (50 μL) was added to the Form-I crystal of the present invention to make a suspension thereof, and the suspension was stirred for 2 days while repeatedly being cooled and warmed between 4 to 40° C.

JAK2 tyrosine kinase = JAK2 tyrosine kinase (Homo sapiens, UniProt O60674); conditions: see PATENT DOCUMENT 1; cited from earlier work
[5] = solvent 1,4-dioxane:water 80:20
[6] = solvent acetonitrile:dimethyl sulfoxide 80:20
[7] = solvent acetonitrile:water 80:20
[8] = solvent acetonitrile:water 95:5
[9] = solvent ethanol:dimethyl sulfoxide 80:20
[10] = solvent tetrahydrofuran:water 20:80
[11] = solvent tetrahydrofuran:water 95:5

Sequence of JAK2 tyrosine kinase (O60674 whole entry): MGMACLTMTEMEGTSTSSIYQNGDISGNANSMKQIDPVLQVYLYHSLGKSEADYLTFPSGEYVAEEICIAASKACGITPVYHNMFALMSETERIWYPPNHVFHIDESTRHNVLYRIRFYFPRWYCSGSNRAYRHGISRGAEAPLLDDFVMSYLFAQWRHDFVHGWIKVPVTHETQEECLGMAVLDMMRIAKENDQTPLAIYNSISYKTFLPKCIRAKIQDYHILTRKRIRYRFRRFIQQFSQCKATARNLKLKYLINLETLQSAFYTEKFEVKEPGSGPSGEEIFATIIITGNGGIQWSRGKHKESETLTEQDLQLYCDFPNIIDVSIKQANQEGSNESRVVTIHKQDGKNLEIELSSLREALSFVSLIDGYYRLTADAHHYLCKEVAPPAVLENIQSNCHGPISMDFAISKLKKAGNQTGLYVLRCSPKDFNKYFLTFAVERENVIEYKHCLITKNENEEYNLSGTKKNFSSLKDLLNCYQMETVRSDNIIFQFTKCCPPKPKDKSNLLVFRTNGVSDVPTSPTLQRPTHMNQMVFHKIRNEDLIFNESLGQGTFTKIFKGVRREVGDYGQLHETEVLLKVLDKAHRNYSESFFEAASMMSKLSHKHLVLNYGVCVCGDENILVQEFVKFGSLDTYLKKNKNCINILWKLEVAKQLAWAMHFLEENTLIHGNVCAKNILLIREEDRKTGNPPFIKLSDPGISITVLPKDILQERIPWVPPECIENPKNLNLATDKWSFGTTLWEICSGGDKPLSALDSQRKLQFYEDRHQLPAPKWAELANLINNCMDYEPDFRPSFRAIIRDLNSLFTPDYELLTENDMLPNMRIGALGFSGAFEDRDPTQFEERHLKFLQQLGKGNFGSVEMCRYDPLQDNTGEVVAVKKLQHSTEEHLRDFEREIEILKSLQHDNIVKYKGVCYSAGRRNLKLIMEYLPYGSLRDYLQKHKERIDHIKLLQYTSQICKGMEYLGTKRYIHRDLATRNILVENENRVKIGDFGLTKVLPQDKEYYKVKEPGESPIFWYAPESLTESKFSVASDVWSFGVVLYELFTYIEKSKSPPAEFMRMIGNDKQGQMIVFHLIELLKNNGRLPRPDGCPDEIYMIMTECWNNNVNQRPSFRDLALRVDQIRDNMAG

crystal form of the precipitated crystals ([1]; solvent acetone): —
crystal form of the precipitated crystals ([1]; solvent acetonitrile): —
crystal form of the precipitated crystals ([1]; solvent dimethyl sulfoxide): Form-I
crystal form of the precipitated crystals ([1]; solvent nitromethane): —
Crystal form ([2]; dissolving solvent 2-methoxyethanol, poor solvent cyclohexane): Form-I
Crystal form ([2]; dissolving solvent 2-methoxyethanol, poor solvent isopropyl acetate): Form-I
Crystal form ([2]; dissolving solvent 2-methoxyethanol, poor solvent t-butyl methyl ether): Form-I
Crystal form ([2]; dissolving solvent 2-methoxyethanol, poor solvent water): —
Crystal form ([2]; dissolving solvent N,N-dimethylformamide, poor solvent 2-propanol): Form-I
Crystal form ([2]; dissolving solvent N,N-dimethylformamide, poor solvent diethyl ether): Form-I
Crystal form ([2]; dissolving solvent N,N-dimethylformamide, poor solvent isopropyl acetate): Form-I
Crystal form ([2]; dissolving solvent N,N-dimethylformamide, poor solvent t-butyl methyl ether): Form-I
Crystal form ([2]; dissolving solvent N,N-dimethylformamide, poor solvent water): Form-I
Crystal form ([2]; dissolving solvent N-methylpyrrolidone, poor solvent 2-propanol): Form-I
Crystal form ([2]; dissolving solvent N-methylpyrrolidone, poor solvent ethyl acetate): Form-I
Crystal form ([2]; dissolving solvent N-methylpyrrolidone, poor solvent toluene): Form-I
Crystal form ([2]; dissolving solvent N-methylpyrrolidone, poor solvent water): Form-I
Crystal form ([2]; dissolving solvent acetone:water 80:20, poor solvent 2-propanol): —
Crystal form ([2]; dissolving solvent acetone:water 80:20, poor solvent water): Form-II
Crystal form ([2]; dissolving solvent dimethyl sulfoxide, poor solvent 2-propanol): Form-I
Crystal form ([2]; dissolving solvent dimethyl sulfoxide, poor solvent diisopropyl ether): —
Crystal form ([2]; dissolving solvent dimethyl sulfoxide, poor solvent ethyl acetate): Form-I
Crystal form ([2]; dissolving solvent dimethyl sulfoxide, poor solvent t-butyl methyl ether): Form-I
Crystal form ([2]; dissolving solvent dimethyl sulfoxide, poor solvent water): —
Crystal form ([2]; dissolving solvent tetrahydrofuran:water 80:20, poor solvent water): Form-I
Crystal form ([2]; dissolving solvent trifluoroethanol, poor solvent cyclohexane): —
Crystal form ([2]; dissolving solvent trifluoroethanol, poor solvent diisopropyl ether): Form-I
Crystal form ([2]; dissolving solvent trifluoroethanol, poor solvent water): —
crystal form of the precipitated crystals ([3]; solvent 1,4-dioxane): solvate
crystal form of the precipitated crystals [3, 5]: —
crystal form of the precipitated crystals ([3]; solvent 1-butanol): —
crystal form of the precipitated crystals ([3]; solvent 1-methoxy-2 -propanol): —
crystal form of the precipitated crystals ([3]; solvent 1-propanol): Form-I
crystal form of the precipitated crystals ([3]; solvent 2-methoxyethanol): —
crystal form of the precipitated crystals ([3]; solvent 2-methoxyethyl ether): —
crystal form of the precipitated crystals ([3]; solvent 2-propanol): —
crystal form of the precipitated crystals ([3]; solvent 2-propanol:water 80:20): —
crystal form of the precipitated crystals ([3]; solvent 2-propanol:water 95:5): —
crystal form of the precipitated crystals ([3]; solvent N,N-dimethylformamide): —
crystal form of the precipitated crystals ([3]; solvent N-methylpyrrolidone): —
crystal form of the precipitated crystals ([3]; solvent acetone): Form-I
crystal form of the precipitated crystals ([3]; solvent acetone:water 20:80): —
crystal form of the precipitated crystals ([3]; solvent acetone:water 80:20): —
crystal form of the precipitated crystals ([3]; solvent acetone:water 95:5): —
crystal form of the precipitated crystals ([3]; solvent acetonitrile): —
crystal form of the precipitated crystals [3, 6]: —
crystal form of the precipitated crystals [3, 7]: —
crystal form of the precipitated crystals [3, 8]: —
crystal form of the precipitated crystals ([3]; solvent chlorobenzene): —
crystal form of the precipitated crystals ([3]; solvent chloroform): —
crystal form of the precipitated crystals ([3]; solvent cyclohexane): —
crystal form of the precipitated crystals ([3]; solvent cyclohexanone): —
crystal form of the precipitated crystals ([3]; solvent dichloromethane): —
crystal form of the precipitated crystals ([3]; solvent dimethyl carbonate): —
crystal form of the precipitated crystals ([3]; solvent dimethyl sulfoxide): —
crystal form of the precipitated crystals ([3]; solvent ethanol): Form-I
crystal form of the precipitated crystals [3, 9]: Form-I
crystal form of the precipitated crystals ([3]; solvent ethanol:water 20:80): —
crystal form of the precipitated crystals ([3]; solvent ethyl acetate): —
crystal form of the precipitated crystals ([3]; solvent heptane): —
crystal form of the precipitated crystals ([3]; solvent isopropyl acetate): —
crystal form of the precipitated crystals ([3]; solvent isopropyl ether): —
crystal form of the precipitated crystals ([3]; solvent methanol): Form-I
crystal form of the precipitated crystals ([3]; solvent methanol:water 80:20): Form-I
crystal form of the precipitated crystals ([3]; solvent methanol:water 95:5): —
crystal form of the precipitated crystals ([3]; solvent methyl acetate): —
crystal form of the precipitated crystals ([3]; solvent methyl ethyl ketone): —
crystal form of the precipitated crystals ([3]; solvent methyl isobutyl ketone): —
crystal form of the precipitated crystals ([3]; solvent nitromethane): —
crystal form of the precipitated crystals ([3]; solvent t-butyl methyl ether): —
crystal form of the precipitated crystals ([3]; solvent tetrahydrofuran): —
crystal form of the precipitated crystals [3, 10]: —
crystal form of the precipitated crystals [3, 11]: —
crystal form of the precipitated crystals ([3]; solvent toluene): —
crystal form of the precipitated crystals ([3]; solvent trifluoroethanol): —
crystal form of the precipitated crystals ([3]; solvent water): —
crystal form of the precipitated crystals ([4]; solvent 1,4-dioxane): Form-I
crystal form of the precipitated crystals [4, 5]: Form-I
crystal form of the precipitated crystals ([4]; solvent 1-butanol): Form-I
crystal form of the precipitated crystals ([4]; solvent 1-methoxy-2 -propanol): Form-I
crystal form of the precipitated crystals ([4]; solvent 1-propanol): Form-I
crystal form of the precipitated crystals ([4]; solvent 2-methoxyethanol): Form-I
crystal form of the precipitated crystals ([4]; solvent 2-methoxyethyl ether): Form-I
crystal form of the precipitated crystals ([4]; solvent 2-propanol): Form-I
crystal form of the precipitated crystals ([4]; solvent 2-propanol:water 80:20): Form-I
crystal form of the precipitated crystals ([4]; solvent 2-propanol:water 95:5): Form-I
crystal form of the precipitated crystals ([4]; solvent N,N-dimethylformamide): —
crystal form of the precipitated crystals ([4]; solvent N-methylpyrrolidone): —
crystal form of the precipitated crystals ([4]; solvent acetone): Form-I
crystal form of the precipitated crystals ([4]; solvent acetone:water 20:80): Form-I
crystal form of the precipitated crystals ([4]; solvent acetone:water 80:20): Form-I
crystal form of the precipitated crystals ([4]; solvent acetone:water 95:5): Form-I
crystal form of the precipitated crystals ([4]; solvent acetonitrile): Form-I
crystal form of the precipitated crystals [4, 6]: Form-I
crystal form of the precipitated crystals [4, 7]: Form-I
crystal form of the precipitated crystals [4, 8]: Form-I
crystal form of the precipitated crystals ([4]; solvent chlorobenzene): Form-I
crystal form of the precipitated crystals ([4]; solvent chloroform): Form-I
crystal form of the precipitated crystals ([4]; solvent cyclohexane): Form-I
crystal form of the precipitated crystals ([4]; solvent cyclohexanone): Form-I
crystal form of the precipitated crystals ([4]; solvent dichloromethane): Form-I
crystal form of the precipitated crystals ([4]; solvent dimethyl carbonate): Form-I
crystal form of the precipitated crystals ([4]; solvent dimethyl sulfoxide): —
crystal form of the precipitated crystals ([4]; solvent ethanol): Form-I
crystal form of the precipitated crystals [4, 9]: Form-I
crystal form of the precipitated crystals ([4]; solvent ethanol:water 20:80): Form-I
crystal form of the precipitated crystals ([4]; solvent ethyl acetate): Form-I
crystal form of the precipitated crystals ([4]; solvent heptane): Form-I
crystal form of the precipitated crystals ([4]; solvent isopropyl acetate): Form-I
crystal form of the precipitated crystals ([4]; solvent isopropyl ether): Form-I
crystal form of the precipitated crystals ([4]; solvent methanol): Form-I
crystal form of the precipitated crystals ([4]; solvent methanol:water 80:20): Form-I
crystal form of the precipitated crystals ([4]; solvent methanol:water 95:5): Form-I
crystal form of the precipitated crystals ([4]; solvent methyl acetate): Form-I
crystal form of the precipitated crystals ([4]; solvent methyl ethyl ketone): Form-I
crystal form of the precipitated crystals ([4]; solvent methyl isobutyl ketone): Form-I
crystal form of the precipitated crystals ([4]; solvent nitromethane): Form-I
crystal form of the precipitated crystals ([4]; solvent t-butyl methyl ether): Form-I
crystal form of the precipitated crystals ([4]; solvent tetrahydrofuran): Form-I
crystal form of the precipitated crystals [4, 10]: Form-I
crystal form of the precipitated crystals [4, 11]: Form-I
crystal form of the precipitated crystals ([4]; solvent toluene): Form-I
crystal form of the precipitated crystals ([4]; solvent trifluoroethanol): —
crystal form of the precipitated crystals ([4]; solvent water): Form-I
SMILES: C[C@H](Nc1cc(-c2cnn(C)c2)cc(Nc2cnccn2)n1)c1ccc(F)cc1.O=C(O)/C=C\C(=O)O [compound A, (S)-N^2-[1-(4-fluorophenyl)ethyl]-4-(1-methyl-1H-pyrazol-4-yl)-N^6-(pyrazin-2-yl)pyridine-2,6-diamine maleate]
JAK2 tyrosine kinase inhibitory action (JAK2 tyrosine kinase): excellent JAK2 tyrosine kinase inhibitory action
